According to patent US20240142467A1, “Use of Biomarkers in the Treatment of Fibrotic Conditions with a PDE4B-inhibitor” (Boehringer Ingelheim International GmbH, priority 2022, published 2024):

Test system: patients with idiopathic pulmonary fibrosis
Test: Phase 2 trial NCT04419506: biomarker analysis in blood plasma or serum (ELISA, Luminex; MMRM)
Assay type: in vivo, human
Method: Blood samples were collected from patients during the clinical phase 2 trial at baseline, at 2, 4, 8 and 12 weeks (after baseline) of the “Compound of formula A′ treatment arm” and of the “Placebo arm”, and blood plasma and/or blood serum was prepared according to methods known in the art.
Fibrosis-related biomarkers were assessed in plasma or serum using ELISA or Luminex technologies. The changes in these fibrosis-related biomarkers at weeks 2, 4, 8 and 12 after baseline were analysed using mixed models with repeated measures (MMRM). The fold changes in the tested biomarkers over baseline over time were then compared between patients of the of the “Compound of formula A′ treatment arm” and patients of the “Placebo arm”.
Biomarker values were only considered valid up to +2 days for CRP and up to +7 days after last drug intake for all other proteins.
At MLM (MLM Medical Labs GmbH, Mönchengladbach, Germany, www.mlm-labs.com) the biomarker KL-6 (Krebs von den Lungen) was measured using CLEIA Test kits (Lumipulse® G KL-6 Immunoreaction Cartridges) from Fujirebio (www.fujirebio.com) and a Lumipulse G1200 system, the biomarker sICAM-1 was measured using an ECLIA assay (V-PLEX Plus Vascular Injury Panel 2 Human Kit) from Meso Scale Discovery (MSD) on the Meso QuickPlex SQ120 device, and the biomarker MMP-7 was measured using a Quantikine® ELISA assay (Human MMP-7/PARC Quantikine® ELISA kit) from R&D Systems on a TECAN Absorbance Reader, according to manufacturer's instructions.
The biomarkers CA-125, CA19-9, COMP, CRP, E-selectin, sICAM-1, MMP-3, MMP-7, Prostasin, TIMP-1, and vWF were measured using validated microsphere-based immune-multiplexing assays using Luminex technology at MyriadRBM (Rules Based Medicine, a q2 solutions company, Austin, Texas, USA, www.rbm.q2labsolutions.com).
The biomarker data as collected from the different treatment groups of the phase II trial have been analysed with regard to three different aspects: • 1. The biomarker data has been analysed with regard to the “pharmacodynamic potential” of each respective biomarker, that means the change from baseline (CfB) of the biomarker level over time during treatment with the compound of formula A′ has been analysed. […] The biomarker data has been analysed with regard to the “prognostic potential” of each respective biomarker, that means the level of biomarker at baseline vs. clinical outcome after 12 weeks (=the absolute FVC [mL] change from baseline at week 12 and the absolute change from baseline in Dlco % predicted at week 12) in the Placebo groups has been analysed which is disease-related and may be used to assess the progression of the disease (e.g. fast vs. slow progressors). • 3. The biomarker data has been analysed with regard to their “outcome-related potential” of each respective biomarker, that means the change from baseline (CfB) in biomarker level vs. the clinical outcomes after 12 weeks (=the absolute FVC [mL] change from baseline at week 12 and the absolute change from baseline in Dlco % predicted at week 12) in the compound of formula A′ treatment groups has been analysed. Hereby, a potential early prediction of both clinical endpoint and treatment effect may be achieved.

[1] = AF-background, listed as Comp. A′
[2] = Non-AF-background, listed as Comp. A′

[O-][S@+]1CCc2nc(N3CCC(c4ncc(Cl)cn4)CC3)nc(NC3(CO)CCC3)c21 [Compound of formula A′]
CRP: change of biomarker from baseline to Week 12 in Comp. A′ arm vs. Placebo arm (AF-background): increased
E-selectin: change of biomarker from baseline to Week 12 in Comp. A′ arm vs. Placebo arm (AF-background): decreased
KL-6: change of biomarker from baseline to Week 12 in Comp. A′ arm vs. Placebo arm (AF-background): decreased
Matrilysin (MMP7, MLM): change of biomarker from baseline to Week 12 in Comp. A′ arm vs. Placebo arm (AF-background): decreased
Prostasin: change of biomarker from baseline to Week 12 in Comp. A′ arm vs. Placebo arm (AF-background): ↓
SP-D: change of biomarker from baseline to Week 12 in Comp. A′ arm vs. Placebo arm (AF-background): decreased
CA19.9 (U/mL): fold change from baseline to Week 4, adjusted mean (AF-background, blood, MMRM): 0.987
CA19.9 (U/mL): fold change from baseline to Week 12, adjusted mean (AF-background, blood, MMRM): 0.914
CA-125 (MUC-16) (U/mL): fold change from baseline to Week 4, adjusted mean (AF-background, blood, MMRM): 1.030
CA-125 (MUC-16) (U/mL): fold change from baseline to Week 12, adjusted mean (AF-background, blood, MMRM): 1.067
COMP (μg/L): fold change from baseline to Week 4, adjusted mean (AF-background, blood, MMRM): 0.991
COMP (μg/L): fold change from baseline to Week 12, adjusted mean (AF-background, blood, MMRM): 1.023
CRP (mg/L): fold change from baseline to Week 4, adjusted mean (AF-background, blood, MMRM): 1.780
CRP (mg/L): fold change from baseline to Week 12, adjusted mean (AF-background, blood, MMRM): 1.545
E-selectin (μg/L): fold change from baseline to Week 4, adjusted mean (AF-background, blood, MMRM): 0.933
E-selectin (μg/L): fold change from baseline to Week 12, adjusted mean (AF-background, blood, MMRM): 0.936
KL-6 (U/mL): fold change from baseline to Week 4, adjusted mean (AF-background, blood, MMRM): 0.960
KL-6 (U/mL): fold change from baseline to Week 12, adjusted mean (AF-background, blood, MMRM): 0.923
Matrilysin (μg/L) (MMP7, MLM): fold change from baseline to Week 4, adjusted mean (AF-background, blood, MMRM): 0.941
Matrilysin (μg/L) (MMP7, MLM): fold change from baseline to Week 12, adjusted mean (AF-background, blood, MMRM): 0.981
Prostasin (μg/L): fold change from baseline to Week 4, adjusted mean (AF-background, blood, MMRM): 0.939
Prostasin (μg/L): fold change from baseline to Week 12, adjusted mean (AF-background, blood, MMRM): 0.933
SP-D (μg/L): fold change from baseline to Week 4, adjusted mean (AF-background, blood, MMRM): 0.879
SP-D (μg/L): fold change from baseline to Week 12, adjusted mean (AF-background, blood, MMRM): 0.894
Stromelysin-1 MMP3) (μg/L): fold change from baseline to Week 4, adjusted mean (AF-background, blood, MMRM): 1.063
Stromelysin-1 MMP3) (μg/L): fold change from baseline to Week 12, adjusted mean (AF-background, blood, MMRM): 1.056
sICAM1 (RBM) (μg/L): fold change from baseline to Week 4, adjusted mean (AF-background, blood, MMRM): 1.049
sICAM1 (RBM) (μg/L): fold change from baseline to Week 12, adjusted mean (AF-background, blood, MMRM): 1.069
vWF (mg/L): fold change from baseline to Week 4, adjusted mean (AF-background, blood, MMRM): 1.035
vWF (mg/L): fold change from baseline to Week 12, adjusted mean (AF-background, blood, MMRM): 0.964
CRP: change of biomarker from baseline to Week 12 in Comp. A′ arm vs. Placebo arm [1]: ↑ (significant increase)
E-selectin: change of biomarker from baseline to Week 12 in Comp. A′ arm vs. Placebo arm [1]: ↓
KL-6: change of biomarker from baseline to Week 12 in Comp. A′ arm vs. Placebo arm [1]: ↓ (significant decrease)
Matrilysin (MMP7, MLM): change of biomarker from baseline to Week 12 in Comp. A′ arm vs. Placebo arm [1]: ↓
SP-D: change of biomarker from baseline to Week 12 in Comp. A′ arm vs. Placebo arm [1]: ↓ (significant decrease)
CA19-9: change of biomarker from baseline to Week 12 in Comp. A′ arm vs. Placebo arm (Non-AF-background): ↓
CA-125 (MUC-16): change of biomarker from baseline to Week 12 in Comp. A′ arm vs. Placebo arm (Non-AF-background): decreased
COMP: change of biomarker from baseline to Week 12 in Comp. A′ arm vs. Placebo arm (Non-AF-background): decreased
CRP: change of biomarker from baseline to Week 12 in Comp. A′ arm vs. Placebo arm (Non-AF-background): increased
E-selectin: change of biomarker from baseline to Week 12 in Comp. A′ arm vs. Placebo arm (Non-AF-background): decreased
KL-6: change of biomarker from baseline to Week 12 in Comp. A′ arm vs. Placebo arm (Non-AF-background): decreased
Matrilysin (MMP7, MLM): change of biomarker from baseline to Week 12 in Comp. A′ arm vs. Placebo arm (Non-AF-background): decreased
Prostasin: change of biomarker from baseline to Week 12 in Comp. A′ arm vs. Placebo arm (Non-AF-background): decreased
SP-D: change of biomarker from baseline to Week 12 in Comp. A′ arm vs. Placebo arm (Non-AF-background): decreased
Stromelysin-1 (MMP3): change of biomarker from baseline to Week 12 in Comp. A′ arm vs. Placebo arm (Non-AF-background): ↓
sICAM1 (RBM): change of biomarker from baseline to Week 12 in Comp. A′ arm vs. Placebo arm (Non-AF-background): basically the same
vWF: change of biomarker from baseline to Week 12 in Comp. A′ arm vs. Placebo arm (Non-AF-background): decreased
CA19-9 (U/mL): fold change from baseline to Week 4, adjusted mean (Non-AF-background, blood, MMRM): 0.901
CA19-9 (U/mL): fold change from baseline to Week 12, adjusted mean (Non-AF-background, blood, MMRM): 1.016
CA-125 (MUC-16) (U/mL): fold change from baseline to Week 4, adjusted mean (Non-AF-background, blood, MMRM): 0.956
CA-125 (MUC-16) (U/mL): fold change from baseline to Week 12, adjusted mean (Non-AF-background, blood, MMRM): 1.039
COMP (μg/L): fold change from baseline to Week 4, adjusted mean (Non-AF-background, blood, MMRM): 0.970
COMP (μg/L): fold change from baseline to Week 12, adjusted mean (Non-AF-background, blood, MMRM): 0.949
CRP (mg/L): fold change from baseline to Week 4, adjusted mean (Non-AF-background, blood, MMRM): 2.134
CRP (mg/L): fold change from baseline to Week 12, adjusted mean (Non-AF-background, blood, MMRM): 1.479
E-selectin (μg/L): fold change from baseline to Week 4, adjusted mean (Non-AF-background, blood, MMRM): 0.943
E-selectin (μg/L): fold change from baseline to Week 12, adjusted mean (Non-AF-background, blood, MMRM): 0.982
KL-6 (U/mL): fold change from baseline to Week 4, adjusted mean (Non-AF-background, blood, MMRM): 0.911
KL-6 (U/mL): fold change from baseline to Week 12, adjusted mean (Non-AF-background, blood, MMRM): 0.916
Matrilysin (μg/L) (MMP7, MLM): fold change from baseline to Week 4, adjusted mean (Non-AF-background, blood, MMRM): 0.908
Matrilysin (μg/L) (MMP7, MLM): fold change from baseline to Week 12, adjusted mean (Non-AF-background, blood, MMRM): 0.883
Prostasin (μg/L): fold change from baseline to Week 4, adjusted mean (Non-AF-background, blood, MMRM): 0.883
Prostasin (μg/L): fold change from baseline to Week 12, adjusted mean (Non-AF-background, blood, MMRM): 0.905
SP-D (μg/L): fold change from baseline to Week 4, adjusted mean (Non-AF-background, blood, MMRM): 0.833
SP-D (μg/L): fold change from baseline to Week 12, adjusted mean (Non-AF-background, blood, MMRM): 0.875
Stromelysin-1 MMP3) (μg/L): fold change from baseline to Week 4, adjusted mean (Non-AF-background, blood, MMRM): 0.963
Stromelysin-1 MMP3) (μg/L): fold change from baseline to Week 12, adjusted mean (Non-AF-background, blood, MMRM): 0.960
sICAM1 (RBM) (μg/L): fold change from baseline to Week 4, adjusted mean (Non-AF-background, blood, MMRM): 0.956
sICAM1 (RBM) (μg/L): fold change from baseline to Week 12, adjusted mean (Non-AF-background, blood, MMRM): 0.937
vWF (μg/L) (mg/L): fold change from baseline to Week 4, adjusted mean (Non-AF-background, blood, MMRM): 0.991
vWF (μg/L) (mg/L): fold change from baseline to Week 12, adjusted mean (Non-AF-background, blood, MMRM): 0.972
CA-125 (MUC-16): change of biomarker from baseline to Week 12 in Comp. A′ arm vs. Placebo arm [2]: ↓ (minor decrease)
COMP: change of biomarker from baseline to Week 12 in Comp. A′ arm vs. Placebo arm [2]: ↓
CRP: change of biomarker from baseline to Week 12 in Comp. A′ arm vs. Placebo arm [2]: ↑ (significant increase)
E-selectin: change of biomarker from baseline to Week 12 in Comp. A′ arm vs. Placebo arm [2]: ↓
KL-6: change of biomarker from baseline to Week 12 in Comp. A′ arm vs. Placebo arm [2]: ↓ (significant decrease)
Matrilysin (MMP7, MLM): change of biomarker from baseline to Week 12 in Comp. A′ arm vs. Placebo arm [2]: ↓ (significant decrease)
Prostasin: change of biomarker from baseline to Week 12 in Comp. A′ arm vs. Placebo arm [2]: ↓
SP-D: change of biomarker from baseline to Week 12 in Comp. A′ arm vs. Placebo arm [2]: ↓ (significant decrease)
vWF: change of biomarker from baseline to Week 12 in Comp. A′ arm vs. Placebo arm [2]: ↓
elevation of the CRP-levels (treatment groups regardless of background therapy): approximately 2 ×
